In patent US20260224563A1, “CRYSTALLINE FORMS OF 6-(3-((5-CHLORO-2-METHOXYPYRIDINE)-3-SULFONAMIDO)-2,6-DIFLUOROPHENYL)-N-METHYLIMIDAZO[1,5-A]PYRAZINE-1-CARBOXAMIDE AND METHODS FOR USING THE SAME” (HIBERCELL, INC., priority 2023, published 2026):
Converted amounts (≈) assume the structure as drawn. Where a name gives a salt, the structure may show the parent alone. Read-outs that look alike come from different tables or passages of the source. Each block holds one compound with its values, some of them ahead of it.

Columns and labels:
Format in all cases: physicochemical
[1] = Solubility in simulated biological fluid (FaSSGF and FaSSIF) at 37° C., HPLC; pH of filtrate, XRPD of filter cake; settings: for times more soluble than the free acid (Form II): 0.5-hour mark; for XRPD: filter cake; for pH (24 h): filtrate; for XRPD (filter cake, crystal form): up to 24 hours
Experimental: (§1) Approximately between 15 mg and 24 mg of sample was suspended in 5 mL or 8 mL of FaSSGF or FaSSIF, respectively. The resulting suspension was shaken at 700 rpm with a QQMSC-100 shaker at 37° C. The suspension was sampled and filtered at certain time intervals, which was achieved by sampling 1000 μL of each suspension which was then filtered and diluted, diluting the resulting filtrate for HPLC analysis to assess solubility. The pH of the filtrate was measured, and the filter cake was analyzed by XRPD.
as §1, with “Approximately” for “Approximately between”, “mg to” for “mg and”, “5” for “5 mL”, “suspension” for “suspension which”, “was” for “was then”
Approximately 15 mg to 24 mg of sample was suspended in 5 or 8 mL of FaSSGF or FaSSIF, respectively. The resulting suspension was shaken at 700 rpm with a QQMSC-100 shaker at 37° C. The suspension was sampled and filtered in certain time interval, which was achieved by sampling 1000 μL of each suspension was filtered and diluted, diluting the resulting filtrate for HPLC analysis to assess solubility. The pH of the filtrate was measured, and the filter cake was analyzed by XRPD.

[2] = Solid-state stability (60° C./closed and 40° C./75% relative humidity open, up to seven days; HPLC purity, XRPD); settings: for physical and chemical stability: both closed (60° C.) and open (40° C./75% RH) conditions for seven days
Experimental: HPLC method for stability and solubility testing is listed below.
• Column: Ascentis® Express C18 4.6*150 mm*2.7 μm • Mobile Phase A: 0.05% trifluoroacetic acid in water • Mobile Phase B: Methanol • Gradient (T/B %): 0/10, 10/100, 13.5/10, 15/10 • Column Temperature: 40° C. • Detector: DAD; 220 nm • Flow rate: 1.0 mL/min • Injection volume: 1 μL • Concentration: 1 mg/mL • Run time: 15 minutes • Diluent: Methanol:Water 9:1 (v/v)
The solid-state stability of Form III of the potassium salt was performed using the following protocol: • (1) A sample of Form III of the potassium salt was placed at 60° C./closed and 40° C./75% relative humidity (open) conditions for up to seven days. At the onset of the test (day 0) and day 7 of the test, the sample was dissolved in a diluent to prepare a 1 mg/mL solution for HPLC purity analysis. The solid sample was analyzed by XRPD to assess the crystal form of each solid at day 7. […] The XRPD data confirmed the physicochemical stability of Form III of the potassium salt under both closed and open conditions. […]

[3] = Dynamic vapor sorption (DVS); settings: for DVS weight gain: 25° C.
Experimental: Moisture sorption/desorption data was collected on a Vsorp Dynamic Moisture Sorption Analyzer (ProUmid GmbH & Co. KG, Germany). The sample was placed into a tared sample chamber and automatically weighed.
• Equilibrium Condition: 0.01%/40 min • Time between weighing cycles: 10 minutes • Minimum time per climate cycle: 50 minutes • Maximum time per climate cycle: 2.0 hour • Balanced condition: 25° C. at 60% […] for 4 hours • Sample temperature: 25° C. • Adsorption: 70, 80, 90 • Desorption: 80, 70, 60, 50, 40, 30, 20, 10, 0 • Adsorption: 10, 20, 30, 40, 50, 60

[4] = Water activity study of the crystalline potassium salt forms (acetone/water suspension, XRPD); settings: water/acetone
Experimental: A water activity study of the potassium salt forms was conducted in two groups: (i) Form I and Form III of the potassium salt, and (ii) Form II and Form III of the potassium salt.
Each suspension was shaken at 700 rpm in a shaker at 25° C., 35° C., 45° C., and 50° C., and the sample was analyzed by XRPD.

[5] = Solubility testing in organic solvents and water (visual, room temperature)

times more soluble than the free acid (Form II) ([1]; FaSSGF): about 230 times
times more soluble than the free acid (Form II) ([1]; FaSSIF): about 100 times
Purity (Area %) 220 nm ([2]; 0 day): 99.87 Area %
Purity (Area %) 220 nm ([2]; 40° C./75% RH (open), 7 days): 99.87 Area %
Purity (Area %) 220 nm ([2]; 60° C./closed, 7 days): 99.85 Area %
DVS weight gain ([3]; 0 to 30% relative humidity): 2.6%
DVS weight gain ([3]; 0 to 30% relative humidity, listed as Form III of the sodium salt): around 2.6%
DVS weight gain ([3]; 0 to 80% relative humidity): 3.3%
DVS weight gain ([3]; 0 to 90% relative humidity): 4.7%
DVS weight gain ([3]; 60 to 80% relative humidity, listed as Form III of the sodium salt): around 0.7%
DVS weight gain ([3]; 80 to 90% relative humidity): 1.4%
XRPD pattern after DVS testing ([3]; listed as Form III of the sodium salt): did not change
Compound: CNC(=O)c1ncn2cc(-c3c(F)ccc(NS(=O)(=O)c4cc(Cl)cnc4OC)c3F)ncc12 [Sodium salt Form III, 6-(3-((5-chloro-2-methoxypyridine)-3-sulfonamido)-2,6-difluorophenyl)-N-methylimidazo[1,5-a]pyrazine-1-carboxamide]
physical and chemical stability [2]: maintained physical and chemical stability

pH (0 h) ([1]; FaSSGF): 1.60
Concentration ([1]; FaSSGF, 37° C., 0.5 h): 45900 ng/mL
Concentration ([1]; FaSSGF, 37° C., 2.0 h): 4400 ng/mL
Concentration ([1]; FaSSGF, 37° C., 24 h): 4100 ng/mL
XRPD ([1]; FaSSGF): Changed
pH (24 h) ([1]; FaSSGF): 1.68
pH (0 h) ([1]; FaSSIF): 6.50
Concentration ([1]; FaSSIF, 37° C., 0.25 h): 176000 ng/mL
Concentration ([1]; FaSSIF, 37° C., 0.5 h): 175000 ng/mL
Concentration ([1]; FaSSIF, 37° C., 0.75 h): 169000 ng/mL
Concentration ([1]; FaSSIF, 37° C., 1.0 h): 170000 ng/mL
Concentration ([1]; FaSSIF, 37° C., 2.0 h): 13200 ng/mL
Concentration ([1]; FaSSIF, 37° C., 24 h): 9900 ng/mL
XRPD ([1]; FaSSIF): Changed
pH (24 h) ([1]; FaSSIF): 6.86
Compound: CNC(=O)c1ncn2cc(-c3c(F)ccc([N-]S(=O)(=O)c4cc(Cl)cnc4OC)c3F)ncc12.[Na+] [Na salt Form III]

Crystalline form by XRPD ([4]; 0% water without molecular sieves, KF 0.189 wt. %, 50° C., 20 h): Form I^20 h
Compound: CNC(=O)c1ncn2cc(-c3c(F)ccc([N-]S(=O)(=O)c4cc(Cl)cnc4OC)c3F)ncc12.[K+] [Forms II and III of the Potassium Salt]

Solubility ([5]; Acetone, listed as Form I of the Free Acid): ~10000 µg/mL (≈ 19700 µM)
Solubility ([5]; DCM, listed as Form I of the Free Acid): ~8000 µg/mL (≈ 15700 µM)
Solubility ([5]; DMSO, listed as Form I of the Free Acid): >230000 µg/mL
Solubility ([5]; EtOAc, listed as Form I of the Free Acid): ~2000 µg/mL (≈ 3930 µM)
Solubility ([5]; EtOH, listed as Form I of the Free Acid): ~1000 µg/mL (≈ 1970 µM)
Solubility ([5]; H2O (water), listed as Form I of the Free Acid): <100 µg/mL
Solubility ([5]; Heptane): <100 µg/mL
Solubility ([5]; IPA, listed as Form I of the Free Acid): ~400 µg/mL (≈ 786 µM)
Solubility ([5]; IPAc, listed as Form I of the Free Acid): ~800 µg/mL (≈ 1570 µM)
Solubility ([5]; MEK, listed as Form I of the Free Acid): ~6000 µg/mL (≈ 11800 µM)
Solubility ([5]; MTBE): <100 µg/mL
Solubility ([5]; MeCN, listed as Form I of the Free Acid): ~5000 µg/mL (≈ 9830 µM)
Solubility ([5]; MeOH, listed as Form I of the Free Acid): ~700 µg/mL (≈ 1380 µM)
Solubility ([5]; NBA, 24 °C, organic solvent or mixture, thermodynamic from solid, NBA, read-out: Solubility): ~700 µg/mL (≈ 1380 µM)
Solubility ([5]; THF, listed as Form I of the Free Acid): ~35000 µg/mL (≈ 68800 µM)
Solubility ([5]; toluene, 24 °C, organic solvent or mixture, thermodynamic from solid, Toluene, read-out: Solubility): < 100 µg/mL
Compound: CNC(=O)c1ncn2cc(-c3c(F)ccc(NS(=O)(=O)c4cc(Cl)cnc4OC)c3F)ncc12 [Free acid Form I, 6-(3-((5-chloro-2-methoxypyridine)-3-sulfonamido)-2,6-difluorophenyl)-N-methylimidazo[1,5-a]pyrazine-1-carboxamide]

Crystalline form by XRPD ([4]; 0% water without molecular sieves, KF 0.189 wt. %, 25° C.): Form III
Crystalline form by XRPD ([4]; 0% water without molecular sieves, KF 0.189 wt. %, 35° C.): Form III
Crystalline form by XRPD ([4]; 0% water without molecular sieves, KF 0.189 wt. %, 45° C.): Form III
Crystalline form by XRPD ([4]; 0% water without molecular sieves, KF 0.189 wt. %, 50° C.): Form III
Crystalline form by XRPD ([4]; 10 V% water, KF 14.9 wt. %, 25° C.): Form III
Crystalline form by XRPD ([4]; 10 V% water, KF 14.9 wt. %, 35° C.): Form III
Crystalline form by XRPD ([4]; 10 V% water, KF 14.9 wt. %, 45° C.): Form III
Crystalline form by XRPD ([4]; 10 V% water, KF 14.9 wt. %, 50° C.): Form III
Crystalline form by XRPD ([4]; 25 V% water, KF 34.5 wt. %, 25° C.): Form III
Crystalline form by XRPD ([4]; 25 V% water, KF 34.5 wt. %, 35° C.): Form III
Crystalline form by XRPD ([4]; 25 V% water, KF 34.5 wt. %, 45° C.): Form III
Crystalline form by XRPD ([4]; 25 V% water, KF 34.5 wt. %, 50° C.): Form III
Crystalline form by XRPD ([4]; 50 V% water, KF 60.1 wt. %, 25° C.): Form III
Crystalline form by XRPD ([4]; 50 V% water, KF 60.1 wt. %, 35° C.): Form III
Crystalline form by XRPD ([4]; 50 V% water, KF 60.1 wt. %, 45° C.): Form III
Crystalline form by XRPD ([4]; 50 V% water, KF 60.1 wt. %, 50° C.): Form III
Crystalline form by XRPD ([4]; 75 V% water, KF 90.5 wt. %, 25° C.): Form III
Crystalline form by XRPD ([4]; 75 V% water, KF 90.5 wt. %, 35° C.): Form III
Crystalline form by XRPD ([4]; 75 V% water, KF 90.5 wt. %, 45° C.): Form III
Crystalline form by XRPD ([4]; 75 V% water, KF 90.5 wt. %, 50° C.): Form III
Compound: CNC(=O)c1ncn2cc(-c3c(F)ccc([N-]S(=O)(=O)c4cc(Cl)cnc4OC)c3F)ncc12.[K+] [Forms I and III of the Potassium Salt]

pH (0 h) ([1]; FaSSGF, 37° C.): 1.60
Concentration ([1]; FaSSGF, 37° C., 0.5 h): 200 ng/mL
Concentration ([1]; FaSSGF, 37° C., 2.0 h): 300 ng/mL
Concentration ([1]; FaSSGF, 37° C., 24 h): 1500 ng/mL
pH (24 h) ([1]; FaSSGF, 37° C.): 1.57
XRPD (filter cake, crystal form) ([1]; FaSSGF, 37° C.): Unchanged
pH (0 h) ([1]; FaSSIF, 37° C.): 6.50
Concentration ([1]; FaSSIF, 37° C., 0.25 h): 3000 ng/mL
Concentration ([1]; FaSSIF, 37° C., 0.5 h): 1400 ng/mL
Concentration ([1]; FaSSIF, 37° C., 0.75 h): 1300 ng/mL
Concentration ([1]; FaSSIF, 37° C., 1.0 h): 1300 ng/mL
Concentration ([1]; FaSSIF, 37° C., 2.0 h): 1600 ng/mL
Concentration ([1]; FaSSIF, 37° C., 24 h): 4000 ng/mL
pH (24 h) ([1]; FaSSIF, 37° C.): 6.49
XRPD (filter cake, crystal form) ([1]; FaSSIF, 37° C.): Unchanged
Purity (Area %) 220 nm ([2]; 0 day): 99.96 Area %
Purity (Area %) 220 nm ([2]; 40° C./75% RH (open), 7 days): 99.94 Area %
Purity (Area %) 220 nm ([2]; 60° C./closed, 7 days): 99.94 Area %
DVS weight gain ([3]; 0 to 90% relative humidity): ~0%
DVS weight gain ([3]; 0 to 90% relative humidity, listed as Form II of the free acid): almost no weight gain
Hygroscopicity (DVS) ([3]; class by weight gain to 80% relative humidity): Non-hygroscopic
XRPD pattern after DVS testing ([3]; listed as Form II of the free acid): No changes
Hygroscopicity (DVS) ([3]; relative to the class slightly hygroscopic): below slightly hygroscopic
Compound: CNC(=O)c1ncn2cc(-c3c(F)ccc(NS(=O)(=O)c4cc(Cl)cnc4OC)c3F)ncc12 [Free acid Form II, 6-(3-((5-chloro-2-methoxypyridine)-3-sulfonamido)-2,6-difluorophenyl)-N-methylimidazo[1,5-a]pyrazine-1-carboxamide]
physical and chemical stability [2]: maintained physical and chemical stability
